“Also recorded” adds a separate entry of the source.
What was measured:
[1] = test system: tubulin; ovarian cancer cells (1A9, 1A9PTX10, 1A9PTX22); details: in words; for biological activity (tubulin polymerization and/or cytotoxicity), SAR statement: compared with natural products 7 and 8; for biological activity on modification of the alcohol component of the ester group: compared with the methyl ester (compound 600)
Method: (§1) FIG. 21 tabulates cytotoxicity data of sarcodictyins with the following tubulin polymerization and cytotoxicity properties of sarcodictyins: (a) The tubulin polymerization measurements were performed at 37° C. except for adjustments in drug concentration ([…]) and incubation time (90 min). (b) The cytotoxicity experiments were carried out as previously described (Giannakakou et al. J. Biol. Chem. 1995, 272, 17118-17125; Nicolaou et al. Angew. Chem. Int. Ed. Engl. 1997, 36, 2097-2103).
(§2) The synthesized sarcodictyin library (shown in FIG. 20) was screened for induction of tubulin polymerization using the filtration calorimetric assay and […] at 37° C. (results are listed in FIG. 20; Bollag et al. Cancer Res. 1995, 55, 2325-2333). These investigations were then followed by cytotoxicity studies with ovarian cancer cells (1A9) including two taxol-resistant lines (1A9PTX10 and 1A9PTX22; Giannakakou et al. J. Biol. Chem. 1995, 272, 17118-17125). The data reveal a number of important structure activity relationships (SARs).

[2] = test system: ovarian cancer cells (1A9); assay type: cell-based; details: 1A9 and taxol-resistant lines; in words, compared with natural substances 7 and 8; figures only in FIG. 21
Method: as §1, §2

[3] = test system: taxol-resistant lines (1A9PTX10 and 1A9PTX22); experiment: cytotoxicity against taxol-resistant tumor cell lines; assay type: cell-based; details: in words
Method: as §1, §2

[4] = test system: tubulin; experiment: induction of tubulin polymerization, filtration calorimetric assay; assay type: biochemical; details: 100 m compound at 37° C.; in words, compared with sarcodictyins A (7) and B (8); figures only in FIG. 20
Method: as §1, §2

Structure (SMILES)	biological activity (tubulin polymerization and/or cytotoxicity), SAR statement [1]	cytotoxicity potency [2]	cytotoxicity / biological activity against the taxol-resistant cell lines [3]	tubulin polymerization properties / potencies [4]	biological activity on modification of the alcohol component of the ester group [1]
COC(=O)/C1=C/[C@@H]2[C@@H](C(C)C)CC=C(C)[C@@H]2C[C@H](OC(=O)/C=C/c2ccccc2)[C@]2(C)C=C[C@@]1(OC)O2 [Compound 990]	only negligible biological activity				
COC(=O)/C1=C/[C@@H]2[C@@H](C(C)C)CC=C(C)[C@@H]2C[C@H](OC(=O)Nc2ccccc2)[C@]2(C)C=C[C@@]1(OC)O2 [Compound 1010]	complete loss of activity				
CCOC(=O)C1=CC2C(CC(OC(=O)/C=C/c3cn(C)cn3)C3(C)C=CC1(OC)O3)C(C)=CCC2C(C)C (stereo not drawn) [Compound 610]	equal or superior biological activities	potencies comparable or higher that those of the natural substances	Particularly striking; also recorded: enhanced biological activity	not always in line with their cytotoxicity effects	enhancement of the biological activity
CCOC(=O)/C1=C/[C@@H]2[C@@H](C(C)C)CC=C(C)[C@@H]2C[C@H](OC(=O)/C=C/c2coc(C)n2)[C@]2(C)C=C[C@@]1(OC)O2 [Compound 500]	considerable loss of activity				
CO[C@]12C=C[C@](C)(O1)[C@@H](OC(=O)/C=C/c1cn(C)cn1)C[C@H]1C(C)=CC[C@H](C(C)C)[C@H]1/C=C\2C(=O)OCCCCc1ccccc1 [Compound 660]		cytotoxicity comparable to, or better than, the natural products		modest	
CO[C@]12C=C[C@](C)(O1)[C@@H](OC(=O)/C=C/c1cn(C)cn1)C[C@H]1C(C)=CC[C@H](C(C)C)[C@H]1/C=C\2C(=O)OCCOCc1ccccc1 [Compound 690]		cytotoxicity comparable to, or better than, the natural products		modest	
CCCOC(=O)/C1=C/[C@@H]2[C@@H](C(C)C)CC=C(C)[C@@H]2C[C@H](OC(=O)/C=C/c2cn(C)cn2)[C@]2(C)C=C[C@@]1(OC)O2 [Compound 680]			Particularly striking		enhancement of the biological activity
CCCCOC(=O)/C1=C/[C@@H]2[C@@H](C(C)C)CC=C(C)[C@@H]2C[C@H](OC(=O)/C=C/c2cn(C)cn2)[C@]2(C)C=C[C@@]1(OC)O2 [Compound 670]			Particularly striking		
CO[C@]12C=C[C@](C)(O1)[C@@H](OC(=O)/C=C/c1cn(C)cn1)C[C@H]1C(C)=CC[C@H](C(C)C)[C@H]1/C=C\2C(=O)OCc1c2ccccc2cc2ccccc12 [Compound 920]	equal or superior biological activities		Particularly striking	modest	
CO[C@]12C=C[C@](C)(O1)[C@@H](OC(=O)/C=C/c1cn(C)cn1)C[C@H]1C(C)=CC[C@H](C(C)C)[C@H]1/C=C\2C(=O)OCCCl [Compound 630]	equal or superior biological activities	potencies comparable or higher that those of the natural substances			reversal of the trend
COC(=O)/C1=C/[C@@H]2[C@@H](C(C)C)CC=C(C)[C@@H]2C[C@H](OC(=O)/C=C/c2csc(C)n2)[C@]2(C)C=C[C@@]1(OC)O2 [Compound 490]	considerable loss of activity				
CCCOC(=O)/C1=C/[C@@H]2[C@@H](C(C)C)CC=C(C)[C@@H]2C[C@H](OC(=O)/C=C/c2cn(C)cn2)[C@]2(C)C=C[C@@]1(OCC(F)(F)F)O2 [Compound 840]		overall decrease of cytotoxicity			
COC(=O)C1=CC2C(CC(OC(=O)/C=C/c3cn(C)cn3)C3(C)C=CC1(OC)O3)C(C)=CCC2C(C)C (stereo not drawn) [Compound 600]	equal or superior biological activities	potencies comparable or higher that those of the natural substances	Particularly striking; also recorded: enhanced biological activity	superior tubulin polymerization properties to those of either sarcodictyins A (7) or B (8)	
COC(=O)/C1=C/[C@@H]2[C@@H](C(C)C)CC=C(C)[C@@H]2C[C@H](OC(=O)/C=C/c2ccccn2)[C@]2(C)C=C[C@@]1(OC)O2 [Compound 480]	considerable loss of activity				
COC(=O)/C1=C/[C@@H]2[C@@H](C(C)C)CC=C(C)[C@@H]2C[C@H](OC(C)=O)[C@]2(C)C=C[C@@]1(OC)O2 [Compound 1070]	complete loss of activity				
COC(OC)/C1=C/[C@@H]2[C@@H](C(C)C)CC=C(C)[C@@H]2C[C@H](OC(=O)/C=C/c2cn(C)cn2)[C@]2(C)C=C[C@@]1(OC)O2 [Compound 730]		potencies comparable or higher that those of the natural substances	Particularly striking		
CO[C@]12C=C[C@](C)(O1)[C@@H](OC(=O)/C=C/c1cn(C)cn1)C[C@H]1C(C)=CC[C@H](C(C)C)[C@H]1/C=C\2C(=O)OCCC(C)C [Compound 710]					reversal of the trend
CO[C@]12C=C[C@](C)(O1)[C@@H](OC(=O)/C=C/c1cn(C)cn1)C[C@H]1C(C)=CC[C@H](C(C)C)[C@H]1/C=C\2CO[C@@H]1OC[C@@H](O)[C@@H](O)[C@@H]1OC(C)=O [eleutherobin]	potent biological actions				
CCO[C@]12C=C[C@](C)(O1)[C@@H](OC(=O)/C=C/c1cn(C)cn1)C[C@H]1C(C)=CC[C@H](C(C)C)[C@H]1/C=C\2C(=O)OC [Compound 850]	equal or superior biological activities	potencies comparable or higher that those of the natural substances	Particularly striking	superior tubulin polymerization properties to those of either sarcodictyins A (7) or B (8)	
C=CCOC(=O)/C1=C/[C@@H]2[C@@H](C(C)C)CC=C(C)[C@@H]2C[C@H](OC(=O)/C=C/c2cn(C)cn2)[C@]2(C)C=C[C@@]1(OC)O2 [Compound 700]				not always in line with their cytotoxicity effects	enhancement of the biological activity

From patent publication US5965718A, “Analogs of sarcodictyin and eleutherobin” (priority 1998, dated 1999)
